How the values were obtained:
SpNanB = SpNanB (Streptococcus pneumoniae serotype 4, UniProt Q54727, E68D/K536E/K577E/N393D/S59P); assay: Substrate specificity of SpNanB; conditions: pNP-tagged α2-3-linked sialosides
SpNanC = assay: Substrate specificity assay of SpNanC; conditions: for Percentage conversion (%) by SpNanC: sialoside substrate 0.3 mM, SpNanC (2 μg), Tris-HCl pH 7.0, 30 min, 37° C.; for Cleavage by SpNanC, yield: reactions using 3 μg of SpNanC

| Compound | Recognition by SpNanB (substrate specificity) (SpNanB) | Percentage conversion (%) by SpNanC (SpNanC) | Cleavage by SpNanC, yield (SpNanC) |
| --- | --- | --- | --- |
| CO[C@H]1[C@H]([C@H](O)[C@H](O)CO)O[C@](O[C@H]2[C@@H](O)[C@@H](CO)O[C@@H](Oc3ccc([N+](=O)[O-])cc3)[C@@H]2O)(C(=O)O)C[C@@H]1O [Kdn5OMe α2-3GalβpNP, Kdn5OMeα2-3GalβpNP] | − (− represents <20% conversion) | 1.53 ± 1.02% | – |
| CC(=O)NC1C(O)CC(OC2C(O)C(CO)OC(Oc3ccc([N+](=O)[O-])cc3)C2O)(C(=O)O)OC1C(F)C(O)CO (stereo not drawn) [Neu5Ac7Fα2-3GalβpNP] | + (+ represents >80% conversion) | 91.0 ± 4.3% | – |
| O=C(O)[C@@]1(O[C@H]2[C@@H](O)[C@@H](CO)O[C@@H](Oc3ccc([N+](=O)[O-])cc3)[C@@H]2O)C[C@H](O)[C@@H](F)[C@H]([C@H](O)[C@H](O)CO)O1 [Kdn5Fα2-3GalβpNP] | − (− represents <20% conversion) | 0.48 ± 0.00% | – |
| O=C(CO)NC1C(O)CC(OC2C(O)C(CO)OC(Oc3ccc([N+](=O)[O-])cc3)C2O)(C(=O)O)OC1C(O)C(O)CO (stereo not drawn) [Neu5Gcα2-3GalβpNP] | + (+ represents >80% conversion) | 80.6 ± 6.7% | – |
| CC(=O)N[C@H]1[C@H]([C@H](O)[C@H](O)CF)O[C@@](O[C@H]2[C@@H](O)[C@@H](CO)O[C@@H](Oc3ccc([N+](=O)[O-])cc3)[C@@H]2O)(C(=O)O)C[C@@H]1O [Neu5Ac9Fα2-3GalβpNP] | + (+ represents >80% conversion) | 75.6 ± 3.9% | – |
| O=C(CF)NC1C(O)CC(OC2C(O)C(CO)OC(Oc3ccc([N+](=O)[O-])cc3)C2O)(C(=O)O)OC1C(O)C(O)CO (stereo not drawn) [Neu5AcFα2-3GalβpNP] | + (+ represents >80% conversion) | 74.8 ± 3.2% | – |
| O=C(CO)NC1C(O)CC(OC2C(O)C(CO)OC(Oc3ccc([N+](=O)[O-])cc3)C2O)(C(=O)O)OC1C(O)C(O)CF (stereo not drawn) [Neu5Gc9Fα2-3GalβpNP] | + (+ represents >80% conversion) | 72.3 ± 2.6% | – |
| COC(C(O)CO)C1OC(OC2C(O)C(CO)OC(Oc3ccc([N+](=O)[O-])cc3)C2O)(C(=O)O)CC(O)C1NC(C)=O (stereo not drawn) [Neu5Ac7OMeα2-3GalβpNP] | + (+ represents >80% conversion) | 96.5 ± 1.7% | – |
| O=C(O)[C@]1(O[C@H]2[C@@H](O)[C@@H](CO)O[C@@H](Oc3ccc([N+](=O)[O-])cc3)[C@@H]2O)C[C@H](O)[C@@H](O)[C@H]([C@H](F)[C@H](O)CO)O1 [Kdn7Fα2-3GalβpNP] | − (− represents <20% conversion) | 0.56 ± 0.11% | – |
| O=C(O)C1(OC2C(O)C(CO)OC(Oc3ccc([N+](=O)[O-])cc3)C2O)CC(O)CC(C(O)C(O)CO)O1 (stereo not drawn) [Kdn5deoxyα2-3GalβpNP] | − (− represents <20% conversion) | 5.31 ± 0.23% | – |
| CC(=O)N[C@H]1[C@H](C[C@H](O)CO)O[C@@](O[C@H]2[C@@H](O)[C@@H](CO)O[C@@H](Oc3ccc([N+](=O)[O-])cc3)[C@@H]2O)(C(=O)O)C[C@@H]1O [Neu5Ac7deoxyα2-3GalβpNP] | + (+ represents >80% conversion) | 91.2 ± 1.8% | – |
| CO[C@@H]([C@@H]1O[C@](O[C@H]2[C@@H](O)[C@@H](CO)O[C@@H](Oc3ccc([N+](=O)[O-])cc3)[C@@H]2O)(C(=O)O)C[C@H](O)[C@H]1O)[C@H](O)CO [Kdn7OMeα2-3GalβpNP] | − (− represents <20% conversion) | 23.4 ± 3.3% | 23% |
| COCC(O)C(O)C1OC(OC2C(O)C(CO)OC(Oc3ccc([N+](=O)[O-])cc3)C2O)(C(=O)O)CC(O)C1NC(C)=O (stereo not drawn) [Neu5Ac9OMeα2-3GalβpNP] | + (+ represents >80% conversion) | 88.5 ± 5.1% | – |
| COCC(O)C(O)C1OC(OC2C(O)C(CO)OC(Oc3ccc([N+](=O)[O-])cc3)C2O)(C(=O)O)CC(O)C1O (stereo not drawn) [Kdn9OMeα2-3GalβpNP] | − (− represents <20% conversion) | 4.02 ± 1.36% | – |
| [N-]=[N+]=NCC(O)C(O)C1OC(OC2C(O)C(CO)OC(Oc3ccc([N+](=O)[O-])cc3)C2O)(C(=O)O)CC(O)C1NC(=O)CO (stereo not drawn) [Neu5Gc9N3α2-3GalβpNP] | + (+ represents >80% conversion) | 89.5 ± 3.5% | – |
| COCC(=O)NC1C(O)CC(OC2C(O)C(CO)OC(Oc3ccc([N+](=O)[O-])cc3)C2O)(C(=O)O)OC1C(O)C(O)CO (stereo not drawn) [Neu5AcOMeα2-3GalβpNP] | + (+ represents >80% conversion) | 81.8 ± 1.7% | – |
| Neu5Ac7N3α2-3GalβpNP | + (+ represents >80% conversion) | 65.9 ± 1.1% | – |
| COCC(O)C(O)C1OC(OC2C(O)C(CO)OC(Oc3ccc([N+](=O)[O-])cc3)C2O)(C(=O)O)CC(O)C1NC(=O)CO (stereo not drawn) [Neu5Gc9OMeα2-3GalβpNP] | + (+ represents >80% conversion) | 75.0 ± 1.9% | – |
| [N-]=[N+]=NCC(=O)N[C@H]1[C@H]([C@H](O)[C@H](O)CO)O[C@@](O[C@H]2[C@@H](O)[C@@H](CO)O[C@@H](Oc3ccc([N+](=O)[O-])cc3)[C@@H]2O)(C(=O)O)C[C@@H]1O [Neu5AcN3α2-3GalβpNP] | + (+ represents >80% conversion) | 87.9 ± 1.6% | – |
| CC(=O)NC1C(O)CC(OC2C(O)C(CO)OC(Oc3ccc([N+](=O)[O-])cc3)C2O)(C(=O)O)OC1C(O)C(C)O (stereo not drawn) [Neu5Ac9deoxyα2-3GalβpNP] | + (+ represents >80% conversion) | 93.5 ± 3.1% | – |
| [N-]=[N+]=NC(C(O)CO)C1OC(OC2C(O)C(CO)OC(Oc3ccc([N+](=O)[O-])cc3)C2O)(C(=O)O)CC(O)C1O (stereo not drawn) [Kdn7N3α2-3GalβpNP] | − (− represents <20% conversion) | 4.50 ± 0.45% | – |
| O=C(O)C1(OC2C(O)C(CO)OC(Oc3ccc([N+](=O)[O-])cc3)C2O)CC(O)C(O)C(CC(O)CO)O1 (stereo not drawn) [Kdn7deoxyα2-3GalβpNP] | − (− represents <20% conversion) | 10.1 ± 0.0% | 10% |
| [N-]=[N+]=NC1C(O)CC(OC2C(O)C(CO)OC(Oc3ccc([N+](=O)[O-])cc3)C2O)(C(=O)O)OC1C(O)C(O)CO (stereo not drawn) [Kdn5N3α2-3GalβpNP] | − (− represents <20% conversion) | 0.32 ± 0.45% | – |
| O=C(O)[C@]1(O[C@H]2[C@@H](O)[C@@H](CO)O[C@@H](Oc3ccc([N+](=O)[O-])cc3)[C@@H]2O)C[C@H](O)[C@@H](O)[C@H]([C@H](O)[C@H](O)CO)O1 [Kdnα2-3GalβpNP] | − (− represents <20% conversion) | 4.50 ± 0.45% | – |
| C[C@@H](O)[C@@H](O)[C@@H]1O[C@@](O[C@H]2[C@@H](O)[C@@H](CO)O[C@@H](Oc3ccc([N+](=O)[O-])cc3)[C@@H]2O)(C(=O)O)C[C@H](O)[C@H]1NC(=O)CO [Neu5Gc9deoxyα2-3GalβpNP] | + (+ represents >80% conversion) | 85.5 ± 1.4% | – |
| O=C(O)C1(OC2C(O)C(CO)OC(Oc3ccc([N+](=O)[O-])cc3)C2O)CC(O)C(O)C(C(O)C(O)CF)O1 (stereo not drawn) [Kdn9Fα2-3GalβpNP] | − (− represents <20% conversion) | 3.70 ± 1.14% | – |
